According to the NIST ThermoML archive (doi:10.1021/je901085t):
Numbers after ± are expanded uncertainties.

Experiments:
[1] = wn = mass fraction of the nth substance listed; conditions: Capillary rise
[2] = Capillary rise

CC(F)F [1,1-difluoroethane] + CCC
[1]
Conditions | surface tension liquid-gas [mN/m]
248.15 K, w2 = 0.3497 | 14.65 ± 0.21
248.24 K, w2 = 0.2008 | 15.35 ± 0.21
248.37 K, w2 = 0.4922 | 13.88 ± 0.21
253.14 K, w2 = 0.3497 | 13.96 ± 0.21
253.15 K, w2 = 0.4922 | 13.25 ± 0.21
253.19 K, w2 = 0.2008 | 14.7 ± 0.21
258.1 K, w2 = 0.3497 | 13.22 ± 0.21
258.1 K, w2 = 0.4922 | 12.55 ± 0.21
258.15 K, w2 = 0.2008 | 14.02 ± 0.21
263.1 K, w2 = 0.3497 | 12.43 ± 0.21
263.18 K, w2 = 0.4922 | 11.93 ± 0.21
263.19 K, w2 = 0.2008 | 13.32 ± 0.21
268.13 K, w2 = 0.3497 | 11.85 ± 0.21
268.16 K, w2 = 0.4922 | 11.19 ± 0.21
268.19 K, w2 = 0.2008 | 12.72 ± 0.21
273.08 K, w2 = 0.4922 | 10.49 ± 0.2
273.15 K, w2 = 0.3497 | 11.2 ± 0.21
273.19 K, w2 = 0.2008 | 12.04 ± 0.21
278.16 K, w2 = 0.3497 | 10.31 ± 0.2
278.18 K, w2 = 0.2008 | 11.35 ± 0.21
278.18 K, w2 = 0.4922 | 9.895 ± 0.2
283.16 K, w2 = 0.2008 | 10.48 ± 0.2
283.16 K, w2 = 0.3497 | 9.754 ± 0.2
283.18 K, w2 = 0.4922 | 9.111 ± 0.2
288.15 K, w2 = 0.3497 | 9.186 ± 0.2
288.17 K, w2 = 0.4922 | 8.51 ± 0.2
288.18 K, w2 = 0.2008 | 9.752 ± 0.2
293.13 K, w2 = 0.3497 | 8.519 ± 0.2
293.16 K, w2 = 0.2008 | 9.136 ± 0.2
293.16 K, w2 = 0.4922 | 7.919 ± 0.2
298.1 K, w2 = 0.2008 | 8.465 ± 0.2
298.1 K, w2 = 0.3497 | 7.79 ± 0.2
298.15 K, w2 = 0.4922 | 7.255 ± 0.2
303.15 K, w2 = 0.3497 | 6.986 ± 0.2
303.18 K, w2 = 0.2008 | 7.708 ± 0.2
303.2 K, w2 = 0.4922 | 6.616 ± 0.2
308.11 K, w2 = 0.2008 | 7.125 ± 0.2
308.11 K, w2 = 0.3497 | 6.317 ± 0.2
308.46 K, w2 = 0.4922 | 5.985 ± 0.2
313.16 K, w2 = 0.4922 | 5.421 ± 0.2
313.18 K, w2 = 0.3497 | 5.675 ± 0.2
313.19 K, w2 = 0.2008 | 6.518 ± 0.2
318.13 K, w2 = 0.3497 | 5.133 ± 0.2
318.14 K, w2 = 0.2008 | 5.897 ± 0.2
318.14 K, w2 = 0.4922 | 4.913 ± 0.2
323.16 K, w2 = 0.3497 | 4.602 ± 0.2
323.17 K, w2 = 0.4922 | 4.269 ± 0.2
323.18 K, w2 = 0.2008 | 5.202 ± 0.2
328.12 K, w2 = 0.2008 | 4.614 ± 0.2
328.12 K, w2 = 0.3497 | 3.958 ± 0.2
328.15 K, w2 = 0.4922 | 3.789 ± 0.2

CCC [propane]
[2]
Conditions | surface tension liquid-gas [mN/m]
283.16 K | 8.811 ± 0.2
288.17 K | 8.134 ± 0.2
293.13 K | 7.568 ± 0.2
298.1 K | 6.915 ± 0.2
303.12 K | 6.349 ± 0.2
